Source: EP0434750B1 (priority 1988, dated 1990)
Several values for one entry are separate records, joined by “and”; a condition that tells them apart may be missing. Identical values can stand only once.

Columns and labels:
[1] = tested on: monkeys (Macaca fascicularis); assay: Dopamine and homovanillic acid levels in monkey brain samples (HPLC); type: in vivo; conditions: short-term chloroquine and MPTP; monkeys S1-3
[2] = tested on: Tyrosine hydroxylase (TH); assay: Tyrosine hydroxylase activity in monkey brain homogenate (tritium release method); type: in vivo, Macaca fascicularis; conditions: short-term chloroquine and MPTP; monkeys S1-3
Method: (§1) Thirteen male monkeys (Macaca fascicularis) 5 to 8 years old, weighing 3.5 to 4.8 kg, are studied. […] Nine receive daily (0.35 mg per kg) injections of MPTP i.v. for four days. Three animals (M1-3) who received no chloroquine are the untreated controls. Six animals are pretreated with chioroquine (4 mg per kg) intramuscularly; three (S1-3) are pretreated for 12 days, and three (L1-3) for 24 days. All six pretreated animals continue to receive chloroquine injections during MPTP administration and for 10 days following MPTP exposure.
Detection is done electrochemically on a glassy carbon electrode (Bioanalytical Systems Inc.) at an applied voltage of 0.65 V. Plasma levels of chloroquine are determined by HPLC with UV detection. Samples are deproteinated with 0.2 vol. of 25% trichloroacetic acid followed by centrifugation at 4°C for 30 minutes at 1,000 g. Supernatants are removed, lyophilized overnight and reconstituted with 80 µl of 0.1 M perchloric acid. Samples are analyzed directly using reverse-phase HPLC with a Whatman ODS-3 column (Whatman) and Pellosil C8 guard column (Alltech). The mobile phase for this system is 40% acetonitrile, 0.1 M sodium phosphate (pH 3.0) with 75 mM perchloric acid. Absorption is detected at 343 nm (Bergqvist, Y. et al., Chromat. 221, 2503 (1985)). Tyrosine hydroxylase (TH) activity is assayed by the tritium release method of Nagatsu, T. et al., Analyt. […] Supernatant fluid (50 µl) from brain homogenate (1 g tissue in 20 vol 50 mM Tris, H 7.4) are added to 7 ml glass scintillation vials containing 5 µl 6 DL-6-methyl-5,6,7,8-tetrahydropterine (2.8 mg ml^-1), 5 µl FeSO4 (2.78 mg ml ^-1) and 1 µC of ring labelled [^3H]tyrosine. Mixtures are incubated 30 minutes at 37°C and the reaction terminated by adding 50 µl 3 M Na2CO3, pH 11.6. Toluene/isoamyl alcohol scintillant (5 ml) is then added directly to the vial and the contents mixed for 10 seconds. The aqueous and organic phases are allowed to separate and the ^3H2O extracted into the organic phase determined.

[3] = tested on: monkeys (Macaca fascicularis); assay: Neurological examination of MPTP-treated monkeys with or without chloroquine pretreatment; type: in vivo; conditions: for Neurological Status: Reflexes / Neurological Status: Tone: control score 2
Source text: Four animals are naive controls. […] TABLE 3

[4] = cynomolgus monkey, in vivo
Method: as §1
Detection is done electrochemically on a glassy carbon electrode (Bioanalytical Systems Inc.) at an applied voltage of 0.65 V. Plasma levels of chloroquine are determined by HPLC with UV detection. Samples are deproteinated with 0.2 vol. of 25% trichloroacetic acid followed by centrifugation at 4°C for 30 minutes at 1,000 g. Supernatants are removed, lyophilized overnight and reconstituted with 80 µl of 0.1 M perchloric acid. Samples are analyzed directly using reverse-phase HPLC with a Whatman ODS-3 column (Whatman) and Pellosil C8 guard column (Alltech). […] Absorption is detected at 343 nm (Bergqvist, Y. et al., Chromat. 221, 2503 (1985)). […] The aqueous and organic phases are allowed to separate and the ^3H2O extracted into the organic phase determined.

[5] = tested on: crude striatal synaptosomal suspensions; assay: In vitro accumulation of [3H]DA by crude striatal synaptosomal suspensions; type: biochemical, mice; conditions: striatal synaptosomes of control mice; read-out: Km(µm) of [^3H]DA uptake
Method: All other studies are performed in C57 black mice.
The in vitro accumulation of [^3H]DA by crude striatal synaptosomal suspensions is measured using the method of Snyder, S.H. et al., J.Pharmacol.Exp.Ther. 165, 78 (1968) with minor modifications. Briefly, crude synaptosomal suspensions are prepared by homogenizing striatal tissue in 50 vols. (w/v) of ice-cold 0.32 M sucrose, then centrifuging the homogenate for 10 minutes at 1,000 x g. […] After vortexing, tubes (except temperature blanks) are incubated in a waterbath at 37°C for five minutes, then returned to ice. Synaptosomes are harvested by filtration. Filters are rinsed twice with 5 ml aliquots of physiological saline. Radioactivity in the filters is quantified by liquid scintillation spectroscopy. Assays are performed in sextuplicate at each DA concentration, with half of the samples serving as blanks. Active uptake is defined as the difference between [^3H]DA (PM/mg tissue/5 min.) incubation at 37°C after correction for uptake at 0-4°C.

C57 black mice = assay: Silver degeneration study of striatal nerve terminals (Fink-Heimer); type: in vivo; conditions: pretreated with 25 mg/kg of pargyline, then MPTP 20 mg/kg/h x 4
Method: Nerve terminal degeneration studies are performed using the method of Fink, R.P. et al., Brain Research 4, 369 (1967) (Procedure 1). This method makes possible selective silver impregnation of degenerating nerve fibers and terminals. Mice for these studies are killed under sodium pentobarbital anesthesia (40 mg/kg) by transcardial perfusion with 10% formal saline. The brain is immediately removed and stored in perfusion fluid at 0-4°C for at least one week before being sectioned on a freezing microtomee. 30 µm coronal sections are collected in 5% formal saline, then stained with silver according to Fink et al., supra.
Some fine granular degeneration is also found in the nucleus accumbens and olfactory tubercle, but in these regions it was much less dense. No such degeneration is found in identically treated sections of control mice, or in other brain regions visible in coronal brain sections at the level of the striatum.

[6] = long-term chloroquine (24 days) plus MPTP, monkeys L1-3
[7] = short-term chloroquine (12 days) plus MPTP, monkeys S1-3

For `CCN(CC)CCCC(C)Nc1ccnc2cc(Cl)ccc12` (stereo not shown) [Chloroquine], the “CAUDATE HVA” value [1] was 8.0 nmol per g tissue and 10.5 nmol per g tissue and 9.2 nmol per g tissue, the “PUTAMEN HVA” value [1] was 10.1 nmol per g tissue and 8.6 nmol per g tissue and 9.8 nmol per g tissue and the “CAUDATE TH (% control)” value [2] was 14.0 % control and 18.7 % control and 22.6 % control. For the same compound, the “PUTAMEN TH (% control)” value [2] was 20.0 % control and 23.3 % control and 29.8 % control, the “protection from MPTP-induced parkinsonian clinical symptoms” value ([3]; chloroquine 4 mg per kg i.m. pretreatment, 12 or 24 days) was “Five of the six monkeys” and the “Neurological Status: Reflexes” value [3, 6] was 1 and 2. The “Neurological Status: Tone” value [3, 6] was 1.5 and 1 and 2, the “Neurological Status: Spontaneous Movement” value ([3]; short-term chloroquine 4 mg per kg i.m., pretreated 12 days, plus MPTP, monkeys S1-3, control score 10) was 3 and the “Neurological Status: Total (x 5.26)” value ([3]; short-term chloroquine (12 days) plus MPTP, monkeys S1-3, control 100) was 47 and 58 and 42. For the same compound, the “Neurological Status: Reflexes” value [3, 7] was 1 and 2, the “Neurological Status: Tone” value [3, 7] was 2 and 1 and the “Neurological Status: Tremor” value ([3]; short-term chloroquine (12 days) plus MPTP, monkeys S1-3, control score 5) was 3 and 4. The “Chloroquine level relative to that in other monkeys monitored” value [4] was “* Chloroquine level is 36% of that in other monkeys monitored” and the Chloroquine in plasma ([4]; im, 4 mg/kg) was 300 ng ml^-.

`NCCc1ccc(O)c(O)c1` [[^3H]DA, dopamine] gave a Km [5] of 0.14 ± 0.02 µM.

With `C#CCN(C)Cc1ccccc1` [pargyline] the “evidence of striatal terminal degeneration” value (C57 black mice) was “None of three mice”.
